From patent US20230414826A1, “FIBRIN HYDROGELS” (Mayo Foundation for Medical Education and Research, priority 2020, published 2023) come the findings set out here.

The target of the data set is T1, fibrin gels (40 mg/mL fibrinogen, 33 U/mL thrombin) (Homo sapiens, UniProt P02671+P02675+P02679).
T1 construct: purchased Ethicon (Evicel)
T1 sequence (P02671 20-644 isoform P02671-2 limits assumed): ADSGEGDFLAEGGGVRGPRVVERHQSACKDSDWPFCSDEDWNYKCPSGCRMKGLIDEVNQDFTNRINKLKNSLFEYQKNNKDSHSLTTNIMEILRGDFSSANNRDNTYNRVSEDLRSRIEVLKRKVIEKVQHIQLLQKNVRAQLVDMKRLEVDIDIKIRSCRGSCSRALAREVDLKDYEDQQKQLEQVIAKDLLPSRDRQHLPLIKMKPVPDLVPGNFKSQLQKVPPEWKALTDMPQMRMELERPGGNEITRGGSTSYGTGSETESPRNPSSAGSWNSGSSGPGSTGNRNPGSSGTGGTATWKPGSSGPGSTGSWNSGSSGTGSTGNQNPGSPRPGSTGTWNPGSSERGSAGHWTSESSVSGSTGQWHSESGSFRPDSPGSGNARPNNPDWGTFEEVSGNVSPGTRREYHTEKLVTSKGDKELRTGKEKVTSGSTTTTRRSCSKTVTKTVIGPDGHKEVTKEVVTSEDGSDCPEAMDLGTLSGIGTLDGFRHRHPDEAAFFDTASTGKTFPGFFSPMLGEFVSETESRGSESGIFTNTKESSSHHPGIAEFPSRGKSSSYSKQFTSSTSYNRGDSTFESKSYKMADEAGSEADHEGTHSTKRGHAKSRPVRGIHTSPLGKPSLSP
T1 sequence (P02675 45-491 limits assumed): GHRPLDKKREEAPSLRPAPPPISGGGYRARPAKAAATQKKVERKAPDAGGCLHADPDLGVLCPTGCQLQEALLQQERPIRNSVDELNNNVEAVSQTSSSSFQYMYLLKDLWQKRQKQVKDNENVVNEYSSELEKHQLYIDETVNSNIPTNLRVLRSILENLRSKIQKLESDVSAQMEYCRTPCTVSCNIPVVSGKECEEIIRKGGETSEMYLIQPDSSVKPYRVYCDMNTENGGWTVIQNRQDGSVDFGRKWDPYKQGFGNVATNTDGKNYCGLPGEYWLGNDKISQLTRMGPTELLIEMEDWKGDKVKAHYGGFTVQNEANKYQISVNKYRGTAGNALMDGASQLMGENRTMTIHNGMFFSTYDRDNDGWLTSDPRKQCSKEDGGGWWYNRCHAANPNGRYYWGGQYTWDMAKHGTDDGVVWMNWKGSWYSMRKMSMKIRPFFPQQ
T1 sequence (P02679 27-437 isoform P02679-2 limits assumed): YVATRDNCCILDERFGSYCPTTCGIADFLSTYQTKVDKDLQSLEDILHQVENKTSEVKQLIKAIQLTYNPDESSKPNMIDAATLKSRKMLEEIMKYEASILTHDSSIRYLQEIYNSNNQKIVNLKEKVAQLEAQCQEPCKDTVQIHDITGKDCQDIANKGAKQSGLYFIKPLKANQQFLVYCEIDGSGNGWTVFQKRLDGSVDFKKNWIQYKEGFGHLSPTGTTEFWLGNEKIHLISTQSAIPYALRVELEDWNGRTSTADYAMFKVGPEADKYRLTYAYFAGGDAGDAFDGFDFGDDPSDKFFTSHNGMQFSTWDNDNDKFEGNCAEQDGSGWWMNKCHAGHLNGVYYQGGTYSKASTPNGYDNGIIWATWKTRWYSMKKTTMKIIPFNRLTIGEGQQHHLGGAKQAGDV
The data set is described as follows: Rheometry gelation time, polymerization time and shear modulus, higher fibrinogen concentration fibrin gels. Format: biochemical. The conditions noted are these: 0.12% w/v dye, n=3; for final shear modulus (g′): strain sweep after 2 hour time sweep. As to the method: The viscoelastic mechanical properties of fibrin gels were characterized using oscillatory shear rheology on a Discovery Hybrid Rheometer 2 (TA Instruments; New Castle, DE) with a 20 mm cone-and-plate geometry at a 1° angle and a 20 mm stage. Inertia, friction, and rotational mapping calibrations were performed prior to each experiment. A Peltier temperature-controlled stage maintained 37° C. and a solvent trap was used to control evaporation during experiments lasting longer than 20 minutes. Gels were prepared by mixing specified concentrations of fibrinogen, dye, and thrombin on the stage. Immediately after combining, the geometry head was lowered to 500 μm (˜1-3 seconds) before beginning the first experiment. Gelation kinetics were monitored in time sweeps at 1% strain and 10 rad/s angular frequency. Strain sweeps were measured from 0.01-1000% strain at 1 Hz frequency. A frequency sweeps measured from 0.01-3 Hz at 1% strain was used to confirmed fibrin independence of frequency.
To determine the final polymerization time and resultant shear modulus, a final concentration of 40 mg/mL fibrinogen, 33 U/mL thrombin, and 0.12% w/v dye was used to simulate fibrin scaffold parameters described elsewhere (see, e.g., Gandhi et al., 2018 Acta Biomater., 67:134-46). A time sweep was performed for 2 hours, and the strain sweep was measured following the time sweep to confirm final polymerization had occurred. The shear modulus was determined by averaging values within the linear region of the strain sweep (between 0.01% and 0.5% strain). A 95% confidence interval was defined for the final shear modulus and the lower range value was used as the threshold to determine the final polymerization time.
With confirming that both TB and EB, but not PEG, cause a substantial increase in gelation time, polymerization time was measured. The polymerization time is the total time for the hydrogel to fully form with no remaining soluble fibrin monomer. Functionally, this is defined as the point at which the shear modulus no longer changes. Quantitatively, this is defined at the point at which the g′ reaches its maximum and plateaus over time.
To test if the inclusion of TB and EB would alter the polymerization time, the previous rheometry setup was used over a longer range of time. Unfortunately, evaporative effects were detected as early as 2 hours. […] The surface was sticky, and the presence of non-cross-linked fibrin was evident. To measure polymerization time reliably, the fibrinogen and thrombin concentrations were increased. A 40 mg/mL fibrinogen and 33 U/mL thrombin final concentration is capable of fully polymerizing within 2 hours (see, e.g., Gandhi et al., Acta Biomater., 67:134-46 (2018)). As such, the rheometry experiment were repeated at these concentrations. A final concentration of 0.12% w/v for TB, EB and PEG was used.
Both PBS and PEG groups show g′ values greater than g″ values at the first detectable time point (12 seconds), showing that both groups had already past the initial gelation time. TB and EB show a delay in gelation but appear to quickly approach the PBS and PEG groups. Near the 1000 sec mark, all four groups appear to show a similar growth of g′ overtime. A strain sweep was measured at the end of the time sweep to confirm that the gel had completed polymerization within the 2 hour time frame. Shear modulus values from the linear portion of the strain sweep were verified with rheological data described elsewhere (see, e.g., Wedgwood et al., Macromolecular Symposia, 334:117-25 (2013); and Moreno-Arotzena et al., Materials (Basel), 8:1636-51 (2015)), and used to determine the final gel shear modulus. Using this shear modulus value, the polymerization time for each sample was calculated. The polymerization times for PBS, TB, EB, and PEG groups were 97.0±14.9, 94.6±8.3, 106.2±10.7, 93.8±17.0 minutes (n=3, p=0.654) (FIG. 8B).

With `Cc1cc(-c2ccc(/N=N/c3ccc4c(S(=O)(=O)O)cc(S(=O)(=O)O)c(N)c4c3O)c(C)c2)ccc1/N=N/c1ccc2c(S(=O)(=O)O)cc(S(=O)(=O)O)c(N)c2c1O` [EB, Evans Blue], the gelation time is 89.6 ± 17.9 s, the polymerization time was 106.2 ± 10.7 min and the “final shear modulus (g′)” value worked out at 2077±441 Pa.

Consider `Cc1cc(-c2ccc(/N=N/c3c(S(=O)(=O)O)cc4cc(S(=O)(=O)O)cc(N)c4c3O)c(C)c2)ccc1/N=N/c1c(S(=O)(=O)O)cc2cc(S(=O)(=O)O)cc(N)c2c1O` [TB, Trypan Blue], for which the gelation time is 42.4 ± 19.4 s, the polymerization time worked out at 94.6 ± 8.3 min and the “final shear modulus (g′)” value is 2197±221 Pa.
